In ChEMBL document CHEMBL3352151, “In vitro and in vivo antibacterial evaluation and mechanistic study of ornithine based small cationic lipopeptides against antibiotic resistant clinical isolates” (Eur J Med Chem, 2014):
Values after ≈ are worked out from the molar mass of the structure shown. Active and inactive are the calls of the source. No cut-off for these calls is given here.

Key:
[1] = Toxicity in albino mouse assessed as mortality at 60 mg/kg, iv; type: organism-based; design: dose 60 mg/kg, route intravenous; details: in vivo
[2] = system: Enterococcus faecium; test: Antibacterial activity against clinical isolates of penicillin-resistant Enterococcus faecium GMCH/R-Pen003 after overnight incubation by microdilution broth assay; type: functional
[3] = system: Acinetobacter baumannii; test: Antibacterial activity against clinical isolates of imipenem-resistant Acinetobacter baumannii GMCH/R-Imi003 after overnight incubation by microdilution broth assay; type: functional
[4] = Toxicity in albino mouse assessed as mortality at 45 mg/kg, iv; type: organism-based; design: dose 45 mg/kg, route intravenous; details: in vivo
[5] = system: Streptococcus pneumoniae; test: Antibacterial activity against clinical isolates of erythromycin-resistant Streptococcus pneumoniae PGI/DML02213 after overnight incubation by microdilution broth assay; type: functional
[6] = system: Mus musculus; test: Toxicity in albino mouse assessed as mortality latency at 60 mg/kg, iv; type: organism-based; design: dose 60 mg/kg, route intravenous; details: in vivo
[7] = system: Staphylococcus aureus; test: Antibacterial activity against clinical isolates of Staphylococcus aureus PGI/DML03054 after overnight incubation by microdilution broth assay; type: functional
[8] = Toxicity in albino mouse assessed as mortality at 150 mg/kg, iv; type: organism-based; design: dose 150 mg/kg, route intravenous; details: in vivo
[9] = system: Enterococcus faecalis; test: Antibacterial activity against clinical isolates of gentamicin-resistant Enterococcus faecalis GMCH/R-Gen011 after overnight incubation by microdilution broth assay; type: functional
[10] = Toxicity in albino mouse assessed as mortality at 90 mg/kg, iv; type: organism-based; design: dose 90 mg/kg, route intravenous; details: in vivo
[11] = system: Klebsiella pneumoniae; test: Antibacterial activity against clinical isolates of kanamycin-resistant Klebsiella pneumoniae GMCH/R-Kan006 after overnight incubation by microdilution broth assay; type: functional
[12] = system: Staphylococcus aureus; test: Antibacterial activity against Staphylococcus aureus PGI/DML03149 infected in Swiss albino mouse assessed as log reduction at 3 mg/kg administered twice at 1 hr and 5 hrs post infection relative to control; type: functional
[13] = system: Escherichia coli; test: Bactericidal activity against clinical isolates of Escherichia coli PGI/DML02292 assessed as disruption of cell structure at 4 times MIC after 30 mins by transmission electron microscopy relative to control; type: functional, organism-based
[14] = system: Staphylococcus aureus; test: Antibacterial activity against Staphylococcus aureus PGI/DML03149 infected in Swiss albino mouse assessed as log reduction at 5 mg/kg administered twice at 1 hr and 5 hrs post infection relative to control; type: functional
[15] = Toxicity in albino mouse assessed as mortality at 30 mg/kg, iv; type: organism-based; design: dose 30 mg/kg, route intravenous; details: in vivo
[16] = system: Klebsiella pneumoniae; test: Antibacterial activity against clinical isolates of Klebsiella pneumoniae GMCH/B0127 after overnight incubation by microdilution broth assay; type: functional
[17] = system: Escherichia coli; test: Induction of membrane damage in Escherichia coli PGI/DML02292 at 6 ug/ml after 30 mins by propidium iodide staining-based flow cytometry relative to control; type: functional
[18] = system: Escherichia coli; test: Antibacterial activity against Escherichia coli PGI/DML02292 infected in Swiss albino mouse assessed as log reduction at 5 mg/kg administered twice at 1 hr and 5 hrs post infection relative to control; type: functional

## CCCCCCCCCCCCCC(=O)NC(CCCN)C(=O)NC(CCCN)C(=O)NC(CCCN)C(N)=O (stereo not drawn)
[1]
  mortality: 25%
[2]
  MIC: 3.1 µg/mL (≈ 5.44 µM)
[3]
  MIC: 3.25 µg/mL (≈ 5.7 µM)
[4]
  mortality: 15%
[5]
  MIC: 4.2 µg/mL (≈ 7.37 µM)
[6]
  Time: > 120 h
[7]
  MIC: 2.5 µg/mL (≈ 4.39 µM)
[8]
  mortality: 85%
[9]
  MIC: 4.5 µg/mL (≈ 7.9 µM)
[10]
  mortality: 60%
[11]
  MIC: 5.5 µg/mL (≈ 9.65 µM)
[12]
  FC: 2.8
[13]
  Activity: Active
[14]
  FC: 4.15
[15]
  mortality: 0%
[16]
  MIC: 4 µg/mL (≈ 7.02 µM)
[17]
  Activity: 54%
[18]
  FC: 4.96
